Where two headings read alike, the source gives them in different places.
Columns and labels:
[1] = test system: thrombocyte aggregation in platelet-rich plasma of healthy test persons (collagen); assay: Inhibition of blood-platelet aggregation (Born test), collagen-induced, platelet-rich plasma; format: cell-based, healthy test persons (human); settings: Homo sapiens, read-out: Percentage change in light permeability of plasma (Born test); for inhibition at 1 µM: 10^-6 mol/liter; for inhibition at 20 µM: 2.10^-5 mol/liter; for inhibition at 2 µM: 2.10^-6 mol/liter; for inhibition at 0.2 µM: 2.10^-7 mol/liter
Experimental: The decrease in the optical density of platelet suspensions was measured photometrically and recorded after the addition of collagen. From the angle of inclination of the density curve the velocity of aggregation was estimated. The optical density was taken as the point on the curve where the most light was transmitted. The doses of collagen were chosen so as to be sufficient to produce irreversible aggregation. […] Commercial collagen sold by Hormonchemie, Munich, Germany, was used.

[2] = target: T1, prostaglandin synthetases (Bos taurus, UniProt O62664); assay: Anti-inflammatory activity: inhibition of prostaglandin biosynthesis (prostaglandin synthetases, microsomal extract from bovine seminal vesicles); format: biochemical; settings: 14C-arachidonic acid substrate, read-out: EC50 in mol (50% decrease in the amount of prostaglandins)
T1 construct: isolated as a microsomal extract from bovine seminal vesicles; from tissue; host or cells: bovine seminal vesicles (microsomal extract)
T1 sequence (O62664 25-600): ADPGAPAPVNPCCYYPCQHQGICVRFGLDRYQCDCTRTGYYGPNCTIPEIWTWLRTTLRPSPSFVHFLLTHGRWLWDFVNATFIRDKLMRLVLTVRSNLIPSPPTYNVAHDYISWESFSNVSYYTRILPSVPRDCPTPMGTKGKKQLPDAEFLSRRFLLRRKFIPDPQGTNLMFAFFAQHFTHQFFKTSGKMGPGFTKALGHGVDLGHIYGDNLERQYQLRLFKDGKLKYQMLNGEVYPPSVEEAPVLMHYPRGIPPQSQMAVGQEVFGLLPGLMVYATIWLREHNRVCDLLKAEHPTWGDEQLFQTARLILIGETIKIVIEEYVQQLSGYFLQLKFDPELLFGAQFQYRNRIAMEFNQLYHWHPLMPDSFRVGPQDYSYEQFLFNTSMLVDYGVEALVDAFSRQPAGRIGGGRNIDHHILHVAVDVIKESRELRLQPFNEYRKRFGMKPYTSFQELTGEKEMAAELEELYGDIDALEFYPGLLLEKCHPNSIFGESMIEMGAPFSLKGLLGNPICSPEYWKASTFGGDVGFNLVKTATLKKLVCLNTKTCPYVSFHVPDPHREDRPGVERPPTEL
Experimental: Therefore, the anti-inflammatory activity was determined as the activity against the prostaglandin synthetases:
^14 C-arachidonic acid served as the substrate. The prostaglandins biosynthetisized therefrom were separated chromatographically from the ^14 C-arachidonic acid, and the remaining substrate and product were measured radiochemically.

[3] = Acute toxicity, peroral, rats; format: in vivo; settings: rat, in vivo, po, suspension in 1% methyl-cellulose, observed 24 hours
Experimental: (§1) The acute toxicity was determined in rats of both sexes (1:1) with a body weight of 120-150 gm. The test compound was perorally administered as a suspension in 1% methyl-cellulose (1 ml/100gm animal) by means of an esophageal sound.

rats = assay: Acute toxicity, peroral, rats; format: in vivo; settings: 100 mg/kg p.o., observed 24 hours
Experimental: as §1

[4] = 10^-5 mol/liter, collagen, =% decrease in aggregation vs control
[5] = collagen, =% decrease in aggregation vs control

Structure (SMILES)	EC50 ([2]; DMSO 2%)	LD50 at 24 h [3]	animals died (rats)	inhibition at 20 µM [1, 5]	inhibition at 2 µM [1, 5]	other results
CN1C(C(=O)Nc2nccs2)=C(O)c2sc3ccccc3c2S1(=O)=O [A, 4-Hydroxy-2-methyl-N-(2-thiazolyl)-2H-[1] benzothieno-[2,3-e]-1,2-thiazine-3-carboxamide-1,1-dioxide]	0.039 µM	> 100 mg/kg	0 out of 10			inhibition at 10 µM [1, 4]: 94%; inhibition at 1 µM [1, 5]: 73%; inhibition at 0.1 µM ([1]; 10^-7 mol/liter, collagen, =% decrease in aggregation vs control): 14%
Cc1cccc(NC(=O)C2=C(O)c3sc4ccccc4c3S(=O)(=O)N2C)n1 [B, 4-Hydroxy-2-methyl-N-(6-methyl-2-pyridyl)-2H-[1] benzothieno [2,3-e]-1,2-thiazine-3-carboxamide-1,1-dioxide]						inhibition at 4 µM ([1]; 4.10^-6 mol/liter, collagen, =% decrease in aggregation vs control): 100%; inhibition at 0.4 µM ([1]; 4.10^-7 mol/liter, collagen, =% decrease in aggregation vs control): 71%
Cc1csc(NC(=O)C2=C(O)c3sc4ccccc4c3S(=O)(=O)N2C)n1 [C, 4-Hydroxy-2-methyl-N-(4-methyl-2-thiazolyl)-2H-[1] benzothieno [2,3-e]-1,2-thiazine-3-carboxamide-1,1-dioxide]	0.021 µM	> 100 mg/kg	0 out of 10			inhibition at 10 µM [1, 4]: 93%; inhibition at 1 µM [1, 5]: 57%
Cc1ccnc(NC(=O)C2=C(O)c3sc4ccccc4c3S(=O)(=O)N2C)c1 [D, 4-Hydroxy-2-methyl-N-(4-methyl-2-pyridyl)-2H-[1]-benzothieno-[2,3-e]-1,2-thiazine-3-carboxamide-1,1-dioxide]				88%	60%	inhibition at 0.2 µM [1, 5]: 19%
Cc1ccnc(NC(=O)C2=C(O)c3sc4cc(C)ccc4c3S(=O)(=O)N2C)c1 [E, 2,7-Dimethyl-4-hydroxy-N-(4-methyl-2-pyridyl)-2H-[1]-benzothieno [2,3-e]-1,2-thiazine-3-carboxamide-1,1-dioxide]				72%	34%	
Cc1ccc2c3c(sc2c1)C(O)=C(C(=O)Nc1cccc(C)n1)N(C)S3(=O)=O [F, 2,7-Dimethyl-4-hydroxy-N-(6-methyl-2-pyridyl)-2H-[1]-benzothieno [2,3-e]-1,2-thiazine-3-carboxamide-1,1-dioxide]				90%	77%	inhibition at 0.2 µM [1, 5]: 30%
Cc1ccnc(NC(=O)C2=C(O)c3sc4cc(Cl)ccc4c3S(=O)(=O)N2C)c1 [G, 7-Chloro-4-hydroxy-2-methyl-N-(4-methyl-2-pyridyl)-2H-[1]-benzothieno [2,3-e]-1,2-thiazine-3-carboxamide-1,1-dioxide]				66%	33%	
Cc1cccc(NC(=O)C2=C(O)c3sc4cc(Cl)ccc4c3S(=O)(=O)N2C)n1 [H, 7-Chloro-4-hydroxy-2-methyl-N-(6-methyl-2-pyridyl)-2H-[1] benzothieno [2,3-e]-1,2-thiazine-3-carboxamide-1,1-dioxide]				89%	88%	inhibition at 0.2 µM [1, 5]: 33%
CN1C(C(=O)Nc2nc3ccccc3s2)=C(O)c2sc3ccccc3c2S1(=O)=O [I, N-(2-Benzothiazolyl)-4-hydroxy-2-methyl-2H-[1] benzothieno [2,3-e]-1,2-thiazine-3-carboxamide-1,1-dioxide]	0.022 µM	> 100 mg/kg	0 out of 10			
CN1C(C(=O)Nc2ncc(Cl)s2)=C(O)c2sc3ccccc3c2S1(=O)=O [J, N-(5-Chloro-2-thiazolyl)-4-hydroxy-2-methyl-2H-[1] benzothieno [2,3-e]-1,2-thiazine-3-carboxamide-1,1-dioxide]	0.047 µM	> 100 mg/kg	0 out of 10			
Cc1nc(NC(=O)C2=C(O)c3sc4ccccc4c3S(=O)(=O)N2C)sc1C [K, N-(4,5-Dimethyl-2-thiazolyl)-4-hydroxy-2-methyl-2H-[1]-benzothieno [2,3-e]-1,2-thiazine-3-carboxamide-1,1-dioxide]		> 100 mg/kg	0 out of 10			EC50 ([2]; DMSO 10%): 0.25 µM
CC(=O)Oc1ccccc1C(=O)O [V, Acetylsalicyclic acid, reference compound]						inhibition at 10 µM [1]: 13%; inhibition at 30 µM [1]: 45%
CN1C(C(=O)Nc2nccs2)=C(O)c2ccccc2S1(=O)=O [W, Sudoxicam, reference compound]	7 µM					
